Source: ChEMBL document CHEMBL4000181, “Synthesis and biological screening of novel 2-morpholinoquinoline nucleus clubbed with 1,2,4-oxadiazole motifs” (Eur J Med Chem, 2017)
Values after ≈ are worked out from the molar mass of the structure shown.

Legend:
Streptococcus pneumoniae = test: Antibacterial activity against Streptococcus pneumoniae MTCC 1936 after 24 to 48 hrs by broth microdilution method; assay type: functional
Vibrio cholerae = test: Antibacterial activity against Vibrio cholerae MTCC 3906 after 24 to 48 hrs by broth microdilution method; assay type: functional
Salmonella typhi = test: Antibacterial activity against Salmonella typhi MTCC 98 after 24 to 48 hrs by broth microdilution method; assay type: functional, Salmonella enterica subsp. enterica serovar Typhi; conditions: Salmonella enterica
[1] = system: Schizosaccharomyces pombe; test: Toxicity in Schizosaccharomyces pombe Var. Paul Linder 3360 assessed as dead cells at 2.5 to 12.5 ug/ml after 17 hrs by trypan blue dye-based microscopic method
Escherichia coli = test: Antibacterial activity against Escherichia coli MTCC 443 after 24 to 48 hrs by broth microdilution method; assay type: functional
Candida albicans = test: Antifungal activity against Candida albicans MTCC 227 after 24 to 48 hrs by broth microdilution method; assay type: functional
Clostridium tetani = test: Antibacterial activity against Clostridium tetani MTCC 449 after 24 to 48 hrs by broth microdilution method; assay type: functional
Aspergillus fumigatus = test: Antifungal activity against Aspergillus fumigatus MTCC 3008 after 24 to 48 hrs by broth microdilution method; assay type: functional
Bacillus subtilis = test: Antibacterial activity against Bacillus subtilis MTCC 441 after 24 to 48 hrs by broth microdilution method; assay type: functional

Compound	MIC (Streptococcus pneumoniae) [µM]	MIC (Vibrio cholerae) [µM]	MIC (Salmonella typhi) [µM]	Activity [1]	MIC (Escherichia coli) [µM]	MIC (Candida albicans) [µM]	MIC (Clostridium tetani) [µM]	MIC (Aspergillus fumigatus) [µM]	MIC (Bacillus subtilis) [µM]
COc1ccc(-c2nc(-c3cc4ccccc4nc3N3CCOCC3)no2)cc1	1290 (≈ 500 µg/mL)	644 (≈ 250 µg/mL)	515 (≈ 200 µg/mL)	Non-Toxic	257 (≈ 99.8 µg/mL)	2580 (≈ 1000 µg/mL)	1290 (≈ 500 µg/mL)	2580 (≈ 1000 µg/mL)	257 (≈ 99.8 µg/mL)
CC1(C)S[C@@H]2[C@H](NC(=O)[C@H](N)c3ccccc3)C(=O)N2[C@H]1C(=O)O [AMPICILLIN]	286 (≈ 99.9 µg/mL)	286 (≈ 99.9 µg/mL)	286 (≈ 99.9 µg/mL)		286 (≈ 99.9 µg/mL)		715 (≈ 250 µg/mL)		715 (≈ 250 µg/mL)
Cc1ccc2nc(N3CCOCC3)c(-c3noc(-c4cccc(C(F)(F)F)c4)n3)cc2c1	227 (≈ 100 µg/mL)	568 (≈ 250 µg/mL)	568 (≈ 250 µg/mL)	Non-Toxic	454 (≈ 200 µg/mL)	2270 (≈ 1000 µg/mL)	1140 (≈ 500 µg/mL)	1140 (≈ 500 µg/mL)	568 (≈ 250 µg/mL)
O=C(N[C@H](CO)[C@H](O)c1ccc([N+](=O)[O-])cc1)C(Cl)Cl [CHLORAMPHENICOL]	150 (≈ 48.5 µg/mL)	75 (≈ 24.2 µg/mL)	75 (≈ 24.2 µg/mL)		75 (≈ 24.2 µg/mL)		301 (≈ 97.3 µg/mL)		150 (≈ 48.5 µg/mL)
Cc1ccc2nc(N3CCOCC3)c(-c3noc(-c4ccc([N+](=O)[O-])cc4)n3)cc2c1	149 (≈ 62.2 µg/mL)	239 (≈ 99.8 µg/mL)	599 (≈ 250 µg/mL)	Toxic	239 (≈ 99.8 µg/mL)	1140 (≈ 476 µg/mL)	149 (≈ 62.2 µg/mL)	1200 (≈ 500 µg/mL)	239 (≈ 99.8 µg/mL)
COC1=CC(=O)C[C@@H](C)[C@]12Oc1c(Cl)c(OC)cc(OC)c1C2=O [GRISEOFULVIN]						1150 (≈ 405 µg/mL)		283 (≈ 99.8 µg/mL)	
Clc1ccc(-c2nc(-c3cc4ccccc4nc3N3CCOCC3)no2)cc1	159 (≈ 62.5 µg/mL)	255 (≈ 100 µg/mL)	255 (≈ 100 µg/mL)	Toxic	510 (≈ 200 µg/mL)	637 (≈ 250 µg/mL)	159 (≈ 62.5 µg/mL)	255 (≈ 100 µg/mL)	255 (≈ 100 µg/mL)
CCn1cc(C(=O)O)c(=O)c2cc(F)c(N3CCNCC3)cc21 [NORFLOXACIN]	154 (≈ 49.2 µg/mL)	154 (≈ 49.2 µg/mL)	154 (≈ 49.2 µg/mL)		154 (≈ 49.2 µg/mL)		154 (≈ 49.2 µg/mL)		154 (≈ 49.2 µg/mL)
O=C(O)c1cn(C2CC2)c2cc(N3CCNCC3)c(F)cc2c1=O [CIPROFLOXACIN]	31 (≈ 10.3 µg/mL)	31 (≈ 10.3 µg/mL)	31 (≈ 10.3 µg/mL)		31 (≈ 10.3 µg/mL)				310 (≈ 103 µg/mL)
COc1ccc(-c2nc(-c3cc4cc(C)ccc4nc3N3CCOCC3)no2)cc1	310 (≈ 125 µg/mL)	497 (≈ 200 µg/mL)	248 (≈ 99.8 µg/mL)		497 (≈ 200 µg/mL)	1240 (≈ 500 µg/mL)	621 (≈ 250 µg/mL)	2490 (≈ 1000 µg/mL)	621 (≈ 250 µg/mL)
Brc1ccc(-c2nc(-c3cc4ccccc4nc3N3CCOCC3)no2)cc1	286 (≈ 125 µg/mL)	228 (≈ 99.7 µg/mL)	228 (≈ 99.7 µg/mL)	Non-Toxic	572 (≈ 250 µg/mL)	1120 (≈ 488 µg/mL)	572 (≈ 250 µg/mL)	2290 (≈ 1000 µg/mL)	457 (≈ 200 µg/mL)
Cc1ccc2nc(N3CCOCC3)c(-c3noc(-c4ccc(C(F)(F)F)cc4)n3)cc2c1	454 (≈ 200 µg/mL)	227 (≈ 100 µg/mL)	454 (≈ 200 µg/mL)	Non-Toxic	227 (≈ 100 µg/mL)	568 (≈ 250 µg/mL)	568 (≈ 250 µg/mL)	1140 (≈ 500 µg/mL)	454 (≈ 200 µg/mL)
NYSTATIN						107		107	
Cc1ccc2nc(N3CCOCC3)c(-c3noc(-c4ccccc4)n3)cc2c1	672 (≈ 250 µg/mL)	268 (≈ 99.8 µg/mL)	1340 (≈ 501 µg/mL)		672 (≈ 250 µg/mL)	2690 (≈ 1000 µg/mL)	268 (≈ 99.8 µg/mL)	1340 (≈ 501 µg/mL)	1340 (≈ 501 µg/mL)
FC(F)(F)c1ccc(-c2nc(-c3cc4ccccc4nc3N3CCOCC3)no2)cc1	146 (≈ 62.3 µg/mL)	586 (≈ 250 µg/mL)	146 (≈ 62.3 µg/mL)		586 (≈ 250 µg/mL)	2350 (≈ 1000 µg/mL)	146 (≈ 62.3 µg/mL)	146 (≈ 62.3 µg/mL)	146 (≈ 62.3 µg/mL)
c1ccc(-c2nc(-c3cc4ccccc4nc3N3CCOCC3)no2)cc1	698 (≈ 250 µg/mL)	1400 (≈ 500 µg/mL)	1400 (≈ 500 µg/mL)		279 (≈ 100 µg/mL)	2790 (≈ 1000 µg/mL)	1400 (≈ 500 µg/mL)	1400 (≈ 500 µg/mL)	1400 (≈ 500 µg/mL)
O=[N+]([O-])c1ccc(-c2nc(-c3cc4ccccc4nc3N3CCOCC3)no2)cc1	248 (≈ 100 µg/mL)	620 (≈ 250 µg/mL)	155 (≈ 62.5 µg/mL)	Toxic	620 (≈ 250 µg/mL)	1130 (≈ 456 µg/mL)	155 (≈ 62.5 µg/mL)	248 (≈ 100 µg/mL)	155 (≈ 62.5 µg/mL)
Cc1ccc2nc(N3CCOCC3)c(-c3noc(-c4ccc(Cl)cc4)n3)cc2c1	246 (≈ 100 µg/mL)	153 (≈ 62.3 µg/mL)	246 (≈ 100 µg/mL)	Toxic	153 (≈ 62.3 µg/mL)	246 (≈ 100 µg/mL)	200 (≈ 81.4 µg/mL)	246 (≈ 100 µg/mL)	153 (≈ 62.3 µg/mL)
FC(F)(F)c1cccc(-c2nc(-c3cc4ccccc4nc3N3CCOCC3)no2)c1	234 (≈ 99.8 µg/mL)	234 (≈ 99.8 µg/mL)	146 (≈ 62.3 µg/mL)		234 (≈ 99.8 µg/mL)	1130 (≈ 482 µg/mL)	469 (≈ 200 µg/mL)	234 (≈ 99.8 µg/mL)	234 (≈ 99.8 µg/mL)
Cc1ccc2nc(N3CCOCC3)c(-c3noc(-c4ccc(Br)cc4)n3)cc2c1	221 (≈ 99.7 µg/mL)	554 (≈ 250 µg/mL)	443 (≈ 200 µg/mL)		138 (≈ 62.3 µg/mL)	2340 (≈ 1060 µg/mL)	221 (≈ 99.7 µg/mL)	1110 (≈ 500 µg/mL)	1110 (≈ 500 µg/mL)
